The record followed here is patent publication US9090899B2, “Methods of diagnosing and treating prostate cancer characterized by NDRG1-ERG fusion” (CORNELL UNIVERSITY, priority 2009, dated 2015).

Holding throughout (assay type): cell-based
For one test, the system named is SLC45A3 mRNA. In words: Hormone treatment of LNCaP cells, SLC45A3 mRNA by TAQMAN quantitative RT-PCR. Particulars: for Induction of SLC45A3 mRNA: LNCaP cells, 3 hours, 10 nM 17β-estradiol or 10 nM DPN; for SLC45A3 mRNA expression: serum-starved LNCaP cells, 1 nM R1881 or 10 nM E2, 3, 12 and 24 h, fold change against vehicle (Ethanol), normalized against TCFL1. How it is done: (§1) FIG. 6. Hormone treatment of LNCaP cells induced SLC45A3 and NDRG1 mRNA expression. SLC45A3 (A and C) or NDRG1 (B and D) mRNA expression was induced upon stimulation with synthetic androgen (R1881) and 17β-estradiol (E2). Serum-starved LNCaP cells were stimulated with 1 nM R1881, 1 nM R1881 in combination with 10 μM Flutamide (A and B), 10 nM E2 or 10 nM diarylpropionitrile (DPN) (C and D) for 3, 12 and 24 h. Samples were run in triplicate and normalized against TCFL1. Columns indicate the mean fold change of induction of three biological replicates against vehicle (Ethanol) only treated cells for the respective time points±SEM.
(§2) Hormone Treatment of LNCaP—The prostate cancer cell line LNCaP was obtained from ATCC (Manassas, Va.; cat.#CRL-1740) and maintained according to the suppliers instructions. For hormonal treatment, cells were plated (500,000 cells/10 cm^2) in the presence of complete growth medium supplemented with 1% Penicillin/Streptomycin. Cells were starved for 48 h in charcoal-stripped (CS) medium (RPMI-1640 1×, 5% charcoal-stripped […], 1% Penicillin/Streptomycin) and then treated with R1881 (1 nM), 17β-estradiol (10 nM), diarylpropionitrile (DPN, 10 nM) or ethanol vehicle for 3, 12, and 24 hours. RNA was extracted using the TRIzol Reagent (Invitrogen, Carlsbad, Calif.), subjected to DNase treatment (DNA-free™ Kit, Applied Biosystems) according to the manufacturer's instructions. To test for the specificity of androgen-stimulation, cells were treated with10 μM Flutamide for 2 hours and then treated with R1881 as described above. TAQMAN expression assays (Applied Biosystems) were used to quantify relative levels of SL45A3, NDRG1, PSA (KLK3) and IGF1R.

In a further test the test system is NDRG1 mRNA. In words: Hormone treatment of LNCaP cells, NDRG1 mRNA by TAQMAN quantitative RT-PCR. The settings on record: for Induction of NDRG1 mRNA: LNCaP cells, 12 hours, 10 nM 17β-estradiol or 10 nM DPN; for NDRG1 mRNA expression: serum-starved LNCaP cells, 1 nM R1881 or 10 nM E2, 3, 12 and 24 h, fold change against vehicle (Ethanol), normalized against TCFL1. How it is done:
as §1, §2

In the next test the test system is IGF2R mRNA. The test can be described thus: Hormone treatment of LNCaP cells, IGF2R mRNA by TAQMAN quantitative RT-PCR. The settings on record: serum-starved LNCaP cells; 1 nM R1881 or 10 nM E2; 3, 12 and 24 h; fold change against vehicle (Ethanol), normalized against TCFL1. How it is done:
(§3) FIG. 7. Androgen and 17β-estradiol (E2) signaling of known target genes in LNCaP cells. IGF2R (A) and PSA (B) mRNA expression was induced upon stimulation with synthetic androgen (R1881) and E2. Serum-starved LNCaP cells were stimulated with 1 nM R1881, 1 nM R1881 in combination with 10 μM Flutamide, 10 nM E2 or 10 nM diarylpropionitrile (DPN) for 3, 12 and 24 h. Total RNA was extracted and used for quantitative RT-PCR using TAQMAN assay. Samples were run in triplicate and normalized against TCFL1. Columns indicate the mean fold change of induction of three biological replicates against vehicle (Ethanol) only treated cells for the respective time points±SEM.
as §2, with “RNA was extracted using the TRIzol Reagent (Invitrogen, Carlsbad, Calif.), subjected to DNase treatment (DNA-free™ Kit, Applied Biosystems) according to the manufacturer's instructions. To test for the specificity of androgen-stimulation, cells were treated with10 μM Flutamide for 2 hours and then treated with R1881 as described above.” left out

The next test relates to PSA (KLK3) mRNA. In words: Hormone treatment of LNCaP cells, PSA mRNA by TAQMAN quantitative RT-PCR. The settings on record: serum-starved LNCaP cells; 1 nM R1881 or 10 nM E2; 3, 12 and 24 h; fold change against vehicle (Ethanol), normalized against TCFL1. How it is done:
as §3
as §2, with “RNA was extracted using the TRIzol Reagent (Invitrogen, Carlsbad, Calif.), subjected to DNase treatment (DNA-free™ Kit, Applied Biosystems) according to the manufacturer's instructions. To test for the specificity of androgen-stimulation, cells were treated with10 μM Flutamide for 2 hours and then treated with R1881 as described above.” left out

Regarding `C[C@]12CC[C@@H]3c4ccc(O)cc4CC[C@H]3[C@@H]1CC[C@@H]2O` [17β-estradiol], in the test on SLC45A3 mRNA, the “Induction of SLC45A3 mRNA” value was “observed” and the “SLC45A3 mRNA expression” value was “induced”. In addition, in the test on NDRG1 mRNA, the “Induction of NDRG1 mRNA” value is recorded as “observed” and the “NDRG1 mRNA expression” value was “induced”. Also, the “IGF2R mRNA expression” value in the test on IGF2R mRNA is given as “induced”. The “PSA mRNA expression” value in the test on PSA (KLK3) mRNA is “induced”.
Turning to `N#CC(Cc1ccc(O)cc1)c1ccc(O)cc1` (stereo not drawn) [DPN, diarylpropionitrile], the “Induction of SLC45A3 mRNA” value with SLC45A3 mRNA is “not”. For the same compound, the “Induction of NDRG1 mRNA” value in the test on NDRG1 mRNA is “not”.
As for `C[C@]1(O)CC[C@H]2[C@@H]3CCC4=CC(=O)CCC4=C3C=C[C@@]21C` [R1881], the “SLC45A3 mRNA expression” value in the test on SLC45A3 mRNA is on record as “induced”. Besides, the “NDRG1 mRNA expression” value in the test on NDRG1 mRNA is “induced”. Besides, the “IGF2R mRNA expression” value in the test with IGF2R mRNA is listed as “induced”. Besides, the “PSA mRNA expression” value with PSA (KLK3) mRNA is on record as “induced”.
